Source: the METLIN SMRT retention time set (Domingo-Almenara et al. 2019)

Experiment: gradient 5% acetonitrile 3 min, to 50% in 2 min, to 85% in 15 min, held 3 min, 100 µL/min
Conditions: column: Zorbax Extend-C18 2.1 x 50 mm; eluents: water / acetonitrile, 0.1% formic acid
Method in brief: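 Mixtures of ~100 pure standards were chromatographed on a Zorbax Extend-C18 column (2.1 × 50 mm, 1.8 μm) at 100 μL/min using water and acetonitrile, each with 0.1% formic acid. Detection used a quadrupole time-of-flight mass spectrometer in positive and negative ionization mode, and data collection spanned 3 months. Retention time was obtained from adduct peaks picked computationally and each checked manually.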

`CCOc1ccccc1NC(=O)CN1C(=O)C(C)(C)c2ccccc21` gave an RP-LC retention time of 976 s.
For `COCc1noc(C2CN(CCc3ccccc3)CC23CCCC3)n1` (centres undefined), the RP-LC retention time was 670 s.
`Cc1ccccc1NS(=O)(=O)c1cc2n(c1)CCCN(C)C2=O` gave an RP-LC retention time of 666 s.
Work on `CC(C)c1ccc2occ(CC(=O)N(Cc3ccc(N(C)C)cc3)C3CCS(=O)(=O)C3)c2c1` (centres undefined) yielded an RP-LC retention time of 936 s.
`Cc1noc([C@@H]2CN(C(=O)c3ccsc3)C[C@H]2C(N)=O)n1` gave an RP-LC retention time of 601 s.
In the case of `COc1cccc(Nc2nc(-c3ccc(I)cc3)cs2)c1`, the RP-LC retention time was 1270 s.
In the case of `O=C(Cc1cn2cc(Br)ccc2n1)Nc1ccc2c(c1)OCCO2`, the RP-LC retention time was 608 s.
For `CC(C)n1cnc(S(=O)(=O)N2CCC(C(=O)Nc3ccc4c(c3)OCCO4)CC2)c1`, the RP-LC retention time was 721 s.
`Cc1cc2c(N3CCCC(C(=O)NCc4ccc(N5CCOCC5)cc4)C3)nccc2s1` (centres undefined) showed an RP-LC retention time of 711 s.
Compound `COc1ccc(S(=O)(=O)Nc2cc(-c3cn4ccccc4n3)ccc2C)cc1` has an RP-LC retention time of 797 s.
`CCN1C(=O)Cc2ccccc2C1C(=O)NCc1ccco1` (centres undefined) showed an RP-LC retention time of 690 s.
With `Cc1ccc(-c2ncccc2CNS(=O)(=O)c2ccc(C)c(F)c2)cc1` the RP-LC retention time was 769 s.
`Cc1ccc(NC(=O)CN2CCc3ccccc3C2C(=O)N2CCCCC2)cc1Cl` (centres undefined) gave an RP-LC retention time of 1030 s.
`Cc1ccc(Cl)cc1NC(=O)N(C)CC1CCOCC1` showed an RP-LC retention time of 761 s.
Compound `CCn1ccc2sc(C)c(C(=O)NCc3ccc(SC)cc3)c2c1=O` has an RP-LC retention time of 866 s.
`CC(Oc1ccccc1)C(=O)Nc1ccc2c(c1)Sc1ncccc1C(=O)N2C(C)C` (centres undefined) gave an RP-LC retention time of 930 s.
`O=C(CC1CCOCC1)N1CCN(C(=O)c2ccco2)CC1` showed an RP-LC retention time of 612 s.
Compound `Cc1cccc(NC(=O)Nc2ccc3c(c2)CCN3S(=O)(=O)c2ccccc2)c1` has an RP-LC retention time of 994 s.
In the case of `COc1cc(-c2nnc(-c3ccc(C)c(S(=O)(=O)N4CCCCC4)c3)o2)cc(OC)c1OC`, the RP-LC retention time was 1090 s.
In the case of `CCN1CCN(c2ccc(NC(=O)c3cccc(C)c3)cn2)C1=O`, the RP-LC retention time was 742 s.
`O=C(Cn1ccc2ccccc21)Nc1ccccc1OC(F)(F)F` gave an RP-LC retention time of 610 s.
Work on `CCn1cc(-c2nc(C)c(C(=O)NCc3ccccc3C)s2)c2cccnc21` yielded an RP-LC retention time of 995 s.
Work on `Cc1cc(N2CCN(S(=O)(=O)c3cccc(C(F)(F)F)c3)CC2)nc(NC2CCCCC2)n1` yielded an RP-LC retention time of 890 s.
`CCCN1CCN(Cc2nc3nc(C)cc(N4CCCCCC4)n3n2)CC1` showed an RP-LC retention time of 587 s.
For `Cn1cnc([N+](=O)[O-])c1Sc1nnnn1-c1ccccc1`, the RP-LC retention time was 715 s.
For `CC(C)c1ccc(NC(=O)C2CCN(S(=O)(=O)c3cn(C(C)C)cn3)CC2)cc1`, the RP-LC retention time was 900 s.
Work on `Cn1cc(C(=O)Nc2ccc3c(c2)CCC3)c(S(=O)(=O)N2CCSCC2)n1` yielded an RP-LC retention time of 1040 s.
Compound `Cc1cc(NC(=O)C2CCCN(c3nnc4cccc(C)n34)C2)ccc1F` (centres undefined) has an RP-LC retention time of 721 s.
`CN1C(=O)c2cccnc2Sc2cc(C(=O)NCc3ccc(F)cc3)ccc21` showed an RP-LC retention time of 765 s.
For `COc1cccc(NC(=O)Nc2nccn(-c3ccc(Br)cc3)c2=O)c1`, the RP-LC retention time was 983 s.
For `CC(C)Cn1cc(CCNC(=O)c2ccc(F)c(Cl)c2)c2cccnc21`, the RP-LC retention time was 909 s.
For `CSc1nc(N2CCCC2)c2cnn(CCNC(=O)CSc3ccc(F)cc3)c2n1`, the RP-LC retention time was 829 s.
In the case of `O=c1c2nnn(Cc3ccc(Cl)cc3)c2ncn1Cc1nc(-c2ccc3c(c2)OCO3)no1`, the RP-LC retention time was 982 s.
With `COc1ccc(CN2C(=O)c3ccccc3C2C(=O)NCC2CCCO2)c(OC)c1` (centres undefined) the RP-LC retention time was 695 s.
`Cn1nccc1-c1cccc(-c2noc(-c3ccc(Br)cc3)n2)c1` showed an RP-LC retention time of 1280 s.
`CCOC(=O)C1CCN(S(=O)(=O)c2c(C)nc3sc(C)nn23)CC1` showed an RP-LC retention time of 804 s.
`CCc1nnc(-c2ccc3ccn(CC(=O)NCc4ccc(N(C)C)cc4)c3c2)o1` gave an RP-LC retention time of 640 s.
`COc1ccc(C(=O)CSc2nc3ccccc3[nH]2)cc1` gave an RP-LC retention time of 647 s.
`CC(C)CN1CCN(S(=O)(=O)c2ccc(-c3nnc(C4CCC4)o3)o2)CC1` showed an RP-LC retention time of 610 s.
For `CCN(C(=O)C1CCCN1S(=O)(=O)c1cc2c(cc1C)NC(=O)C(C)O2)c1ccccc1` (centres undefined), the RP-LC retention time was 814 s.
In the case of `CCC1CCCCN1C(=O)c1cnc2nc(C)ccc2c1Nc1cc(OC)cc(OC)c1` (centres undefined), the RP-LC retention time was 674 s.
Compound `O=C(c1csc(-c2ccc(N3CCCC3)nc2)n1)N1CCN(c2ccccn2)CC1` has an RP-LC retention time of 566 s.
For `CC(=O)N1CCc2cc(C)c(S(=O)(=O)NCC3CCCO3)cc21` (centres undefined), the RP-LC retention time was 691 s.
`Nc1cc(C2CCN(S(=O)(=O)Cc3cccc(F)c3)CC2)no1` gave an RP-LC retention time of 742 s.
For `CCC(C)NC(=O)NC1CCN(C2=NS(=O)(=O)C(c3ccc(C)cc3)=C2C)CC1` (centres undefined), the RP-LC retention time was 822 s.
With `NC(=O)c1ccc(NC(=O)C2CCN(c3cc(N4CCCCC4)ncn3)CC2)cc1` the RP-LC retention time was 595 s.
In the case of `COc1cc(OC)c(NC(=O)Cn2nc3c(cc2=O)CCCC3)cc1Cl`, the RP-LC retention time was 719 s.
Work on `COc1ccc(OC)c(CNC(=O)C2CCCN(c3ncnc4c3oc3ccccc34)C2)c1` (centres undefined) yielded an RP-LC retention time of 761 s.
In the case of `CN1CCN(C(CNC(=O)Cc2ccc(Cl)cc2)c2ccc3c(c2)OCO3)CC1` (centres undefined), the RP-LC retention time was 587 s.
In the case of `Cc1cc2nnc(SCC(=O)c3cc(C)n(CC4CCCO4)c3C)n2c2ccccc12` (centres undefined), the RP-LC retention time was 784 s.
With `Cc1noc(C)c1S(=O)(=O)N1CCC(Cc2ccc(COc3ccncc3)cc2)CC1` the RP-LC retention time was 831 s.
Work on `Cc1cnc2cc(Cl)ccc2c1SCC(=O)O` yielded an RP-LC retention time of 816 s.
`Cc1cc(C)cc(NC(=O)c2cn3c(n2)CCCC3)c1` gave an RP-LC retention time of 644 s.
With `CC(C)NC(=O)c1ccc(-c2nc3cc(NS(=O)(=O)c4cc(F)cc(F)c4)ccc3n2C)cc1` the RP-LC retention time was 718 s.
Work on `O=c1n(Cc2ccc3c(c2)OCO3)nc2c(S(=O)(=O)N3CCOCC3)cccn12` yielded an RP-LC retention time of 736 s.
Work on `O=C(CC1CCCC1)Nc1ccc(N2CCN(C3CCCC3)C2=O)nc1` yielded an RP-LC retention time of 801 s.
Work on `Cc1cc2nn(CC(=O)NCc3ccc4c(c3)OCO4)c(=O)n2c(-c2ccccc2)n1` yielded an RP-LC retention time of 600 s.
`CC(C)NC(=O)c1nnc(-c2ccc(S(=O)(=O)N3CCCCC3)cc2)o1` showed an RP-LC retention time of 851 s.
With `O=C(NCCCN1CCOCC1)c1cc2occc2c(Nc2ccc(F)cc2)n1` the RP-LC retention time was 652 s.
`O=C(Cn1c(=O)c2cccn2c2ccccc21)NCCCN1CCCC1` gave an RP-LC retention time of 593 s.
For `COCCNC(=O)Nc1nnc(-c2ccccc2Cl)o1`, the RP-LC retention time was 647 s.
For `CCOC(=O)c1cc(S(=O)(=O)N2CCCC2C(=O)Nc2ccccc2C(F)(F)F)cn1C` (centres undefined), the RP-LC retention time was 999 s.
For `CCc1cccc(NC(=O)C2CCCN(S(=O)(=O)c3cc(-c4noc(CC)n4)cs3)C2)c1` (centres undefined), the RP-LC retention time was 1090 s.
Compound `Cc1ccc(OCC(O)CN2CCN(CC(O)COC(C)C)CC2)c(C(C)(C)C)c1` (centres undefined) has an RP-LC retention time of 607 s.
`Cc1nc(-c2cc(S(=O)(=O)N3CCCc4ccccc43)c(C)s2)sc1C` showed an RP-LC retention time of 1290 s.
Work on `Cc1cc(C(F)(F)F)nn1CC(=O)N1CCC(n2c(C)cnc2C2CCC2)C1` (centres undefined) yielded an RP-LC retention time of 656 s.
For `Cc1ccc(S(=O)(=O)N2CCC3(CC2)NCCN=C3NCc2ccc(F)cc2)cc1C`, the RP-LC retention time was 757 s.
Compound `O=S(=O)(CCc1ccccc1)N1CCN(c2ccc3nnc(-c4ccco4)n3n2)CC1` has an RP-LC retention time of 752 s.
In the case of `CC(C)N1C(=O)c2cccnc2Sc2cc(NC(=O)C3CCCO3)ccc21` (centres undefined), the RP-LC retention time was 729 s.
`CCCn1cnnc1C1CCN(Cc2cccc(OCC)c2)CC1` showed an RP-LC retention time of 601 s.
`O=C1CCCCC(CNC(=O)c2ccsc2)N1` (centres undefined) gave an RP-LC retention time of 619 s.
In the case of `CCOC(=O)c1cccc(N2C=C(C#N)S(=O)(=O)c3ccccc32)c1`, the RP-LC retention time was 898 s.
In the case of `CCOC(=O)C(=CNc1ccccc1Cl)C(=O)OCC`, the RP-LC retention time was 1130 s.
With `COc1ccc(OC)c(NC(=O)N2CCC(n3cnc4cccnc43)CC2)c1` the RP-LC retention time was 649 s.
`CCn1nnc2c(N3CCc4cc(OC)c(OC)cc4C3C)ncnc21` (centres undefined) showed an RP-LC retention time of 784 s.
In the case of `Cc1ccc2c(=O)c(C(=O)N3CCCC3)cn(CC(=O)NC3CCCCC3)c2n1`, the RP-LC retention time was 676 s.
`O=C(Nc1cccc(F)c1)C(=O)c1cn(CC(=O)N2CCOCC2)c2ccccc12` gave an RP-LC retention time of 902 s.
For `O=C(Nc1cccc(F)c1)N1CCCC(Cn2c(C3CC3)nc3cccnc32)C1` (centres undefined), the RP-LC retention time was 676 s.
For `CCC(c1cccs1)N1C(=O)[C@H]2CN(S(=O)(=O)c3ccccc3C)C[C@H]2C1=O` (some centres undefined), the RP-LC retention time was 1020 s.
In the case of `Cc1ccc(NS(=O)(=O)c2c(C)sc(C)c2-c2cc(C(F)(F)F)on2)cc1C`, the RP-LC retention time was 1220 s.
`CCN(CC)c1ccc(CNC(=O)C2CCc3nc(N4CCOCC4)ncc3C2)cc1` (centres undefined) showed an RP-LC retention time of 588 s.
With `CCCn1ncc(N2CCC(C(=O)NCc3cccc(F)c3)CC2)cc1=O` the RP-LC retention time was 706 s.
For `Cc1ccc(NC(=O)Cn2c(C)nc3c(sc4nc(-c5ccccc5)ccc43)c2=O)cc1C`, the RP-LC retention time was 1120 s.
In the case of `C=CCN(Cc1nc(-c2ccc(C)cc2)no1)C(=O)Nc1ccccc1C`, the RP-LC retention time was 650 s.
`COc1ccc(C)cc1NC(=O)Nc1c(-c2ccc(C)cc2)nc2ccccn12` showed an RP-LC retention time of 722 s.
`COc1ccc(C(=O)N2CCC3(CC2)NC(=O)c2ccc(Cl)cc2N3)cc1OC` showed an RP-LC retention time of 692 s.
For `COc1cc(C(=O)NC2CCN(c3cc(-c4ccc(F)cc4)[nH]n3)C2)cc(OC)c1OC` (centres undefined), the RP-LC retention time was 706 s.
Work on `Cc1sc2ccn(C)c(=O)c2c1C(=O)NCc1cccc(Br)c1` yielded an RP-LC retention time of 834 s.
`Fc1ccccc1C(c1nnc(-c2ccccc2)o1)N1CCN(c2ccccn2)CC1` (centres undefined) showed an RP-LC retention time of 704 s.
